Measurements from patent US20200038513A1, “MODULATORS OF FAK PROTEOLYSIS AND ASSOCIATED METHODS OF USE” (ARVINAS OPERATIONS, INC., priority 2018, published 2020).

Assays:
Format in all cases: cell-based, human
[1] = tested on: MDA-MB-231 cells; test: Transwell invasion assay; details: 100 nM, 24 hours
Description: On the first day, 0.2× Basement Membrane Extract (BME) working solution was prepared by diluting 5×BME stock solution in 1× Travigen Inc. coating buffer. Briefly, 100 μL of 10× coating buffer was diluted in 900 μL of sterile water to make 1× coating buffer. Then 960 μL of 1× coating buffer was mixed with 40 μL of 5×BME to make working 0.2×BME solution. Corning Transwell permeable inserts (Costar Transwell chambers, Corning) were placed on a 24-well plate and 100 μL of 0.2×BME solution was added to each Transwell insert and incubated for 16 hours. Following day, MDA-MB-231 cells were trypsinized and cells were suspended in serum free medium. Approximately 100 μL from cell suspension (˜3×10^5 cells) was added to each Transwell insert followed by another 100 μL of exemplary compound or control containing serum free RPMI medium. The lower chamber was filled with 10% FBS containing RPMI medium and the whole setup was incubated at 37° C. 1-5% CO2 for 24 hours. After 24 hours, cell culture medium was removed from both lower and upper chambers and Transwell inserts were washed three times with PBS. […] Images were then analyzed by ImageJ software and number of cells on the bottom side of the membrane were counted and presented as a bar graph using Prism 7.0 (GraphPad). Differences among groups were analyzed by Welch's t-test and considered significant when P<0.05. […]

[2] = tested on: p-Akt (S473); test: Fak downstream signaling, western blot in PC3 cells; details: serum deprived PC3 cells, 24 h
Description: (§1) If not indicated otherwise, cells were seeded and grown to 80% confluency and were treated with compound or control for 24 hours. Subsequently, the growth media was removed and the cells lysed by the addition of lysis buffer (25 mM Tris, pH 7.4; 1% NP-40, 0.25% deoxycholate, 1 mM sodium vanadate, 10 mM sodium fluoride, 10 mM sodium pyrophosphate, 20 mM β-glycerophosphate and 1× complete EDTA-free protease inhibitor cocktail (Roche)). After 20 minutes the mixture was spun down at 16,000×g for 10 minutes at 4° C. to pellet insoluble materials. Protein concentration of supernatants were determined via BCA assay (Thermo Fisher) before addition of NuPAGE sample buffer containing 5% β-Me and boiling at 95° C. for 10 minutes. Equal amounts of protein were subjected to SDS-PAGE and subsequent electrophoretic transfer onto nitrocellulose membrane. Rabbit antibodies were purchased from Cell Signaling: Fak (3285), p-Fak (3283), p-Paxillin (2541), p-Akt (S473)(4060), GAPDH (2118), Androgen Receptor (5153), p-Src(Y527)(2105), p-S6RP (2215). Mouse antibodies were purchased from Cell Signaling: tubulin (3873), S6RP (2317). Secondary antibody ∝-rabbit (31460) or ∝-mouse (31444) was coupled to horseradish peroxidase and purchased from Thermo Fisher. Immunoblots were developed using enhanced chemiluminescence and visualized using a Bio-Rad Chemi-Doc MP Imaging System and quantitated with Image Lab v.5.2.1 software (Bio-Rad Laboratories). Data analysis and statistics was performed using Prism 7.0 (GraphPad).
(§2) Fak levels are undetectable at concentrations of 100 nM through 1 μM of exemplary compound 102, and slightly rebound at concentrations of 5 μM (10%) and 10 μM (27%) due to an observed hook effect. […] Paxillin, a downstream target of the Fak-Src complex, has been associated with cell migration. […] Akt is a kinase that is tied to the Fak signaling cascade via PI3K, but can be activated through other pathways as well. […] A maximum p-Akt suppression of 93% is observed at 1 μM of exemplary compound 102. […] A similar differential can be observed when exemplary compound 102 is compared to its non-degrading diastereomer exemplary compound 106 (FIGS. 9A-9F and 10A-10D). These differences are the result of the distinct MOA Fak degraders are able to provide compared to inhibitors.

[3] = tested on: p-paxillin; test: as above; details: serum deprived PC3 cells, 24 h
Description: as §1, §2

| Compound | reduction of cell invasion [1] [%] | maximum p-Akt suppression ([2]; 1 μM) [%] | effect on p-Akt (S473) (in words) ([2]; increasing concentrations) | reduction of p-paxillin levels ([3]; above 50 nM) | effect on cell invasion (in words) [1] | maximum reduction of p-Akt ([2]; 10 μM) [%] | maximum reduction of p-paxillin levels ([3]; 10 μM) [%] |
| --- | --- | --- | --- | --- | --- | --- | --- |
| Cc1ncsc1-c1ccc(CNC(=O)[C@@H]2C[C@@H](O)CN2C(=O)[C@@H](NC(=O)CCOCCOc2ccc(Nc3ncc(C(F)(F)F)c(NCc4cccc(N(C)S(C)(=O)=O)c4)n3)cc2)C(C)(C)C)cc1 [Compound 102, (2S,4R)-1-((S)-3,3-dimethyl-2-(3-(2-(4-((4-((3-(N-methylmethylsulfonamido)benzyl)amino)-5-(trifluoromethyl)pyrimidin-2-yl)amino)phenoxy)ethoxy)propanamido)butanoyl)-4-hydroxy-N-(4-(4-methylthiazol-5-yl)benzyl)pyrrolidine-2-carboxamide] | 65 | 93 | significant at all treatment concentrations | 85-90% | – | – | – |
| CNC(=O)c1ccc(Nc2ncc(C(F)(F)F)c(NCc3nccnc3N(C)S(C)(=O)=O)n2)cc1 [Defactinib, defactinib, reference compound] | – | – | – | – | no significant effect | 88 | 62 |
